# Reference: EP4029502A1, “PYRAZOLINE-DERIVED COMPOUND (ENFLICOXIB) FOR USE IN THE PREVENTION AND/OR TREATMENT OF PAIN AND INFLAMMATION ASSOCIATED TO SURGERY IN MAMMALS” (Ecuphar N.V., priority 2021, dated 2022)
# Like-named read-outs stand apart in the source and are kept apart here.
# What was measured:
# [1] = system: dogs undergoing orthopaedic surgery; test: Non-inferiority field study of postoperative pain and inflammation after orthopaedic surgery, meloxicam-controlled (SFGCMPS, VAS); type: in vivo
# Description: The study was a non-inferiority, multicentre, prospective, parallel-controlled, randomized and blinded field study.
# Thirty-two dogs of different breed, age and weight presenting at the veterinary practice for orthopaedic surgery were included.
# Agents with analgesic effect were permitted as premedication. However, intraoperative or postoperative analgesia were not permitted.
# For each dog the study lasted twelve days. Two days before surgery, all animals were weighed and underwent a thorough physical examination with clinical pathology to confirm the good health status of the animals before inclusion. Day 0 (D0) was the day dogs underwent surgery and t0h corresponded to the end of surgery (extubation). The physical examination was repeated on D0, before surgery (t-2h) and before dispatch (t8h) and again at t24h (D1) and t168 (D7) post-surgery. Clinical assessments of pain and inflammation were blindly performed on D0, before surgery (t-2h) and again at t1.5h, t3h, t5h, t8h, t24h (D1) and t168h (D7) post-surgery. The global efficacy of treatments was assessed on D7. From day D1 to day D7 post-surgery, the owners assessed the dog's wellbeing.
# The primary endpoint for efficacy comprises the sum of scores for the SFGCMPS scale, which was assessed at different time points by the Investigator.
# From day D1 to D7, owners daily assessed the dogs' wellbeing using scales for: • Demeanour (0=normal; 1=slightly modified; 2=moderately modified; 3=markedly modified and 4=severely modified). • Mobility (0=normal; 1=slightly impaired; 2=moderately impaired; 3=markedly impaired and 4=severely impaired). • Quality of analgesia as very satisfactory (=1); satisfactory (=2); not very satisfactory (=3); not at all satisfactory (=4).
# Blood samples were collected from all animals before inclusion (≤ D-2), for routine pre-surgery blood profile. Potential adverse effects related to the products were also recorded.
# Statistical Analysis was performed by use of commercially available software. All analyses used a two-sided significance level α = 0.05. […]
# [2] = system: dogs undergoing soft tissue surgery; type: in vivo; parameters: Vocalization (SFGCMPS average value) / Attention to wound (SFGCMPS average value) / Mobility (SFGCMPS average value) / Demeanour (SFGCMPS average value) / Posture/Activity (SFGCMPS average value) / Total SFGCMPS (average value): scale not given here
# Description: The study was a single centre, prospective, parallel-controlled, randomized and blinded pilot field trial with a negative (Placebo) control to evaluate the efficacy of E-6087 in dogs undergoing elective soft tissue surgery.
# Twenty dogs (17 females and 3 males) were included in the study. Dogs were of different breeds or crossbreed, ages from 3 months to 7 years and weights from 4 to 34 kg. All dogs were clinically healthy other than the condition causing the animal to go under surgery.
# Two days before surgery animals were weighed, a detailed physical examination was performed, and blood samples were collected for routine haematology and biochemistry to confirm the good health status of the animals before inclusion.
# Dogs were randomly allocated to receive either E-6087 or Placebo as oral tablets. E-6087 and Placebo tablets were similar (same appearance and packaging), therefore treatment administration, clinical examinations and blood sample analysis was always blind.
# E-6087 was administered at the dose of 8 mg/kg on day D-1, approximately 24h before surgery scheduled time, before the first meal of the day. Placebo tablets were administered following the same posology.
# Surgeries were performed in the morning, on day D0 by the Investigator (Surgeon). All surgeries were performed under the same anaesthesia protocol. Premedication was performed with medetomidine and morphine both at 0.1 ml/10 kg followed by anaesthesia maintained with Tiletamine/Zolazepam (Zoletil®). Local anaesthesia was not permitted. At the end of surgery, antibiotic therapy was administered to all dogs following the post-operative protocol stablished: amoxicillin (trihydrate) at 15 mg of amoxicillin/kg bw in a single dose.
# Clinical assessments of postoperative pain and inflammation were done by the Investigator (Examining Veterinarian) using the SFGCMPS (13). Visual Analog Scales (VAS) were also used to assess pain at rest and under palpation as well as the level of inflammation.
# On D0 at approximately 2 hours before surgery the Examining Veterinarian performed a physical examination and the clinical assessment of pain and inflammation to determine the basal scores. After surgery pain and inflammation were assessed at six examination time points: t1.5h, t3h, t5h (±30 minutes), t8h (±1hour), t24h and t168 (D7), when t0h corresponded to the end of surgery (extubation).
# Clinical assessment of pain and inflammation included assessments of vocalization, attention to wound area, mobility, reaction to pressure at the wound area, general behaviour as well as activity and posture as per SFGCMPS. In addition, pain at rest and after palpation as well as the level of inflammation were assessed at the same time points by VAS ranging from 0 (no pain) to 100 (severe pain manifested by vocalization, aggression, and refusal to allow examination) and from 0 (no inflammation) to 100 (major inflammation as local heat, redness or paresis of the affected area).
# Statistical Analysis was performed by use of commercially available software (SigmaPlot for Windows version 13.0). The area under the curve (AUC) was calculated for observable pain during the initial 8 and 24 hours, and it was considered as the primary efficacy variable. All analyses applied a two-sided significance level α = 0.05 and a power β = 80%. Demographic and baseline data were compared using the Mann-Whitney U test. Gender was compared with the Fisher exact probability test in contingency tables. Efficacy variables were analysed by repeated measures ANOVA.
# [3] = system: dogs undergoing experimental orthopaedic surgery; test: Control of postoperative pain and inflammation after experimental orthopaedic (knee) surgery, Maquet Modified Procedure; type: in vivo, Beagle dogs
# Protocol: The study was performed with 6 clinically healthy Beagle dogs with similar age and weight that were experimentally subjected to knee surgery (repair of cranial cruciate ligament rupture). […] All surgeries were conducted under the same preoperative, intraoperative and postoperative protocols and performed by the same surgeon. A highly standardized surgical technique, Maquet Modified Procedure (MMP) (12) was implemented.
# For each dog the study lasted 17 days, including a 7-day acclimatization period. On day D-1 (approximately 24h before the intervention) the five dogs in the TG received a single oral dose (8 mg/kg) of the TP, the one dog in the CG received a single subcutaneous dose (0.1 mg/kg) of the RP. […] On day D0 all dogs underwent knee surgery in the right knee. From day D1 up to day D10 dogs were closely examined and signs of pain and discomfort were blindly evaluated and rated using the Short Form of the Glasgow Composite Pain Scale (SFGCPS) ranging from 0 to 24 (13 and http://www.newmetrica.com/cmps/). On day D-1 dogs were also examined to rule out signs of pain or discomfort.
# [4] = 1.5h after surgery, 8 mg/kg oral on D-1
# [5] = 3h after surgery, 8 mg/kg oral on D-1
# [6] = 5h after surgery, 8 mg/kg oral on D-1
# [7] = 8h after surgery, 8 mg/kg oral on D-1
# [8] = 24h after surgery, 8 mg/kg oral on D-1
compound,measurement,setting,value
"NS(=O)(=O)c1ccc(N2N=C(C(F)(F)F)CC2c2ccc(F)cc2F)cc1 (centres unmarked) [E-6087, enflicoxib]",level of inflammation (VAS 0-100) compared with meloxicam,"[1]; at 3h, p= 0.025",lower values
same,"SFGCMPS (AUC), average value","[1]; initial 24 hours, TG: E-6087 8 mg/kg oral on D-1, CG: meloxicam 0.2 mg/kg s.c. or i.v. on D0, then 0.1 mg/kg oral daily D1 to D7, p=0.7962",95.50±57.70
same,SFGCMPS at each time point compared with CG,[1]; no statistically significant differences at any time point,most values were lower
same,values of AUC for the first 24 hours after surgery compared with Placebo,"[2]; 8 mg/kg oral on D-1, not statistically significant (p=0.266)",almost half
same,AUC for the first 8 hours compared with Placebo,"[2]; 8 mg/kg oral on D-1, p=0,033",statistically significant lower values
same,Attention to wound (SFGCMPS average value),[2]; [4],0
same,Demeanour (SFGCMPS average value),[2]; [4],0.83
same,Mobility (SFGCMPS average value),[2]; [4],0.33
same,Posture/Activity (SFGCMPS average value),[2]; [4],0.17
same,Pressure on wound (SFGCMPS average value),[2]; [4],0.33
same,Total SFGCMPS (average value),[2]; [4],1.92
same,Vocalization (SFGCMPS average value),[2]; [4],0.25
same,Attention to wound (SFGCMPS average value),[2]; [5],0.08
same,Demeanour (SFGCMPS average value),[2]; [5],0.50
same,Mobility (SFGCMPS average value),[2]; [5],0
same,Posture/Activity (SFGCMPS average value),[2]; [5],0.08
same,Pressure on wound (SFGCMPS average value),[2]; [5],0.42
same,Total SFGCMPS (average value),[2]; [5],1.33
same,Vocalization (SFGCMPS average value),[2]; [5],0.25
same,level of inflammation (VAS 0-100) compared with Placebo,"[2]; 3 hours after surgery, p=0.021",Placebo was greater than for the group treated with E-6087
same,Attention to wound (SFGCMPS average value),[2]; [6],0.08
same,Demeanour (SFGCMPS average value),[2]; [6],0.17
same,Mobility (SFGCMPS average value),[2]; [6],0
same,Posture/Activity (SFGCMPS average value),[2]; [6],0
same,Pressure on wound (SFGCMPS average value),[2]; [6],0.50
same,Total SFGCMPS (average value),[2]; [6],0.75
same,Vocalization (SFGCMPS average value),[2]; [6],0
same,Attention to wound (SFGCMPS average value),[2]; [7],0
same,Demeanour (SFGCMPS average value),[2]; [7],0
same,Mobility (SFGCMPS average value),[2]; [7],0
same,Posture/Activity (SFGCMPS average value),[2]; [7],0
same,Pressure on wound (SFGCMPS average value),[2]; [7],0.67
same,Total SFGCMPS (average value),[2]; [7],0.50
same,Vocalization (SFGCMPS average value),[2]; [7],0
same,Attention to wound (SFGCMPS average value),[2]; [8],0
same,Demeanour (SFGCMPS average value),[2]; [8],0
same,Mobility (SFGCMPS average value),[2]; [8],0
same,Posture/Activity (SFGCMPS average value),[2]; [8],0
same,Pressure on wound (SFGCMPS average value),[2]; [8],0.50
same,Total SFGCMPS (average value),[2]; [8],0.50
same,Vocalization (SFGCMPS average value),[2]; [8],0
same,"AUC0→24h (SFGCMPS, observable pain)","[2]; first 24 hours after surgery, 8 mg/kg oral on D-1, primary efficacy variable","16,0±15"
same,Total scores for SFGCMPS at each time point compared with Placebo,"[2]; significant only at 1.5, 3 and 5 hours (p <0,001, 0.007 and 0.042)",always lower
same,alleviating pain and inflammation after soft tissue surgery,[2]; single dose of 8 mg/kg,effective
same,need of rescue analgesia,[3]; 10 days follow up period,None of the animals needed rescue analgesia
same,potential adverse effects related to product administration,[3]; single oral dose 8 mg/kg on D-1,No potential adverse effects related to product administration were recorded
same,analgesic agent in the postoperative period after orthopaedic surgery,"[3]; single oral dose 8 mg/kg on D-1, SFGCPS 0-24, D1 to D10",effective
